This passage reports IC50 results from patent US6960587B2, “Condensed pyrazindione derivatives as PDE inhibitors” (Lilly Icos LLC, priority 2000, dated 2005).

The target in the assay is T1, recombinant human PDE5 (Homo sapiens, UniProt O76074).
T1 construct: host or cells: Saccharomyces cerevisiae strain BJ2-54 (ATCC 74465)
In words: PDE5 inhibition, cGMP-PDE one-step assay. Format: biochemical. The conditions noted are these: in vitro.

Structures can show the parent of a compound that is named as a salt.

Broadly, the IC50 is the concentration needed to halve the response being measured. `CN1CC(=O)N2[C@H](c3ccc4c(c3)OCO4)c3[nH]cnc3C[C@@H]2C1=O` (racemic) [Example 1, (+−, cis)-4-Benzo[1,3]dioxol-5-yl-7-methyl-3,4,6,7,8a,9-hexahydro-1,3,4a,7-tetraaza-cyclopenta[b]naphthalene-5,8-dione hydrochloride]: the IC50 stood at 3.24 µM.
For `COc1cc2c(cc1OC)[C@@H](c1ccc3c(c1)OCO3)N1C(=O)CN(C)C(=O)[C@@H]1C2` [Example 10], the IC50 came out at 0.718 µM.
